In ChEMBL document CHEMBL5223100, “Homobivalent, Trivalent, and Covalent PROTACs: Emerging Strategies for Protein Degradation” (J Med Chem, 2022):
Each block holds one compound with its values, some of them ahead of it.

Experiments:
Protein cereblon = Protein cereblon (Homo sapiens, UniProt Q96SW2); assay: Displacement of dBET6 from CRBN (unknown origin) transfected in BRD4 BD2-GFP mCherry report cells incubated for 5 hrs
PC-3 = assay: Antiproliferative activity against human PC-3 cells after 72 hrs; assay type: functional, cell-based; settings: PC-3, 72 h
[1] = target: Cyclin-dependent kinase 9 (Homo sapiens) (UniProt P50750); assay: Induction of CDK9 degradation in human MOLT-4 cells assessed as maximum degradation after 16 hrs relative to control; assay type: cell-based
CWR22R = assay: Antiproliferative activity against human 22Rv1 cells after 72 hrs; assay type: functional, cell-based; settings: 22Rv1, 72 h
[2] = target: E3 ubiquitin-protein ligase RNF114 (Homo sapiens, UniProt Q9Y508); assay: Binding affinity to RNF114 (unknown origin)
[3] = target: T1, Phosphatidylinositol 3-kinase catalytic subunit type 3 (Homo sapiens, UniProt Q8NEB9); assay: Induction of VPS34 degradation in HEK293 cells; assay type: cell-based
[4] = target: Serine/threonine-protein kinase Sgk3 (Homo sapiens) (UniProt Q96BR1); assay: Induction of SGK3 degradation in HEK293 cells assessed as maximum degradation at 300 nM after 48 hrs relative to control; assay type: cell-based
[5] = target: T1, Phosphatidylinositol 3-kinase catalytic subunit type 3; assay: Induction of VPS34 degradation in HEK293 cells assessed as maximum degradation at 300 nM after 48 hrs relative to control; assay type: cell-based
[6] = target: Serine/threonine-protein kinase Sgk3 (Homo sapiens) (UniProt Q96BR1); assay: Induction of SGK3 degradation in HEK293 cells assessed as maximum degradation after 30 mins relative to control; assay type: cell-based
[7] = target: T1, Phosphatidylinositol 3-kinase catalytic subunit type 3; assay: Induction of VPS34 degradation in HEK293 cells assessed as maximum degradation after 30 mins relative to control; assay type: cell-based
[8] = target: Serine/threonine-protein kinase Sgk3 (Homo sapiens, UniProt Q96BR1); assay: Induction of SGK3 degradation in HEK293 cells; assay type: cell-based
[9] = target: T2, Bromodomain-containing protein 4 (Homo sapiens, UniProt O60885); assay: Induction of BRD4 short isoform degradation in human 231MFP cells; assay type: cell-based
[10] = target: T2, Bromodomain-containing protein 4; assay: Induction of BRD4 long isoform degradation in human 231MFP cells; assay type: cell-based
[11] = target: T3, Tyrosine-protein kinase BTK (Homo sapiens, UniProt Q06187); assay: Induction of BTK degradation in human MOLM-14 cells; assay type: cell-based
[12] = target: T3, Tyrosine-protein kinase BTK; assay: Induction of BTK degradation in human MOLM-14 cells assessed as maximum degradation at 200 nM relative to control; assay type: cell-based
MOLM-14 = assay: Antiproliferative activity against human MOLM-14 cells; assay type: functional, cell-based
[13] = Antiproliferative activity against human MINO cells; assay type: functional, cell-based
[14] = Induction of HaloTag7 fused GFP degradation in HEK293 cells; assay type: cell-based; settings: Homo sapiens
HEK293 = assay: Induction of HaloTag7 fused GFP degradation in HEK293 cells assessed as maximum degradation relative to control; assay type: cell-based; settings: Homo sapiens
[15] = target: von Hippel-Lindau disease tumor suppressor (Homo sapiens, UniProt P40337); assay: Binding affinity to VHL (unknown origin)
[16] = Induction of hRpn13Pru degradation in human RPMI-8226 cells; assay type: cell-based
RPMI-8226 [17] = assay: Antiproliferative activity against human RPMI-8226 cells; assay type: functional, cell-based
RPMI-8226 [18] = assay: Induction of hRpn13Pru degradation in human RPMI-8226 cells assessed as maximum degradation at 50 uM relative to control; assay type: cell-based
[19] = target: Hepatitis C virus serine protease, NS3/NS4A (Hepatitis C virus, UniProt A3EZI9+D2K2A8); assay: Inhibition of HCV NS3/4a protease in Huh7.5 SGR cells using [Ac-DE-D(Edans)-EE-Abu-[COO]AS-K(Dabcyl)-NH2] as substrate preincubated for 15 mins followed by substrate addition and incubated for 1 hr by FRET assay; assay type: cell-based, Hepacivirus hominis
Hepatitis C virus [20] = assay: Antiviral activity against wild type HCV; assay type: functional, organism-based, Hepacivirus hominis
[21] = Induction of HCV NS3 degradation after 4 hrs; parameters: species or system Hepacivirus hominis
Hepatitis C virus [22] = assay: Antiviral activity against HCV harboring NS3 V55A mutant; assay type: functional, organism-based, Hepacivirus hominis
[23] = target: T2, Bromodomain-containing protein 4; assay: Induction of BRD4 degradation in HEK293 cells assessed as maximum degradation after 8 hrs relative to control; assay type: cell-based
Protein fem-1 homolog B = Protein fem-1 homolog B (Homo sapiens, UniProt Q9UK73); assay: Binding affinity to FEM1B (unknown origin)
[24] = target: T2, Bromodomain-containing protein 4; assay: Induction of BRD4 degradation in HEK293 cells after 8 hrs; assay type: cell-based
[25] = target: T2, Bromodomain-containing protein 4; assay: Induction of BRD4 degradation in 231MFP cells; assay type: cell-based

SMILES: COC(=O)C[C@H]1[C@]2(C)C3=C(C)[C@H](c4ccoc4-c4ccc(C(=O)NCCCNC(=O)C[C@@H]5N=C(c6ccc(Cl)cc6)C6C(C)=C(C)SC6n6c(C)nnc65)cc4)C[C@H]3O[C@@H]2C2OC(=O)[C@]3(C)C=CC(=O)[C@@]1(C)[C@@H]23 (stereo partly specified)
- IC50 [2]: 240 nM

SMILES: Cc1sc2c(c1C)C(c1ccc(Cl)cc1)=N[C@@H](CC(=O)NCCCCOc1ccc(C3CC(c4ccc(Br)cc4)=NN3C(=O)CCl)cc1)c1nnc(C)n1-2 (stereo partly specified)
- DC50 [9]: 14 nM
- DC50 [10]: 36 nM

SMILES: CCC[C@H](NC(=O)[C@@H]1[C@H]2CCC[C@H]2CN1C(=O)[C@@H](NC(=O)[C@@H](NC(=O)c1cnc(C(=O)NCCOCCOCCOc2cc3c4c(cccc4c2)C(=O)N(C2CCC(=O)NC2=O)C3=O)cn1)C1CCCCC1)C(C)(C)C)C(=O)C(=O)NC1CC1 (stereo partly specified)
- IC50 [19]: 247 nM
- IC50 (Hepatitis C virus [20]): 558 nM
- DC50 [21]: 50 nM
- IC50 (Hepatitis C virus [22]): 508 nM

SMILES: Cc1sc2c(c1C)C(c1ccc(Cl)cc1)=N[C@@H](CC(=O)NCCCCCNC(=O)CN1CCOc3cc(N(CCC#N)C(=O)CCl)ccc31)c1nnc(C)n1-2
- Emax [23]: 94%
- IC50 (Protein fem-1 homolog B): 1500 nM
- DC50 [24]: 250 nM
- DC50 [25]: 198 nM

Now from value to compound, other results behind:

- EC50 (Protein cereblon): 79 nM
SMILES: C=CC(=O)N1CCN(c2nc(NCCCN3CCN(CCCNc4cccc5c4C(=O)N(C4CCC(=O)NC4=O)C5=O)CC3)nc3c(F)c(-c4cc(O)cc5ccccc45)c(Cl)cc23)CC1 (stereo unspecified)

- EC50 (PC-3): 6.4 nM
- Emax [1]: 96%
SMILES: COc1cc(/C=C/C(=O)N2CCC=CC2=O)cc(OC)c1OCCN1CCN(C(=O)CN2CCC(C(=O)Nc3ncc(SCc4ncc(C(C)(C)C)o4)s3)CC2)CC1
- EC50 (CWR22R): 4.4 nM

- DC50 [3]: 3 nM
- Emax [4]: 95%
- Emax [5]: 95%
- Emax [6]: 50%
- Emax [7]: 50%
- DC50 [8]: 3 nM
SMILES: Cc1ncsc1-c1ccc(CNC(=O)[C@@H]2C[C@@H](O)CN2C(=O)[C@@H](NC(=O)C2(C#N)CC2)C(C)(C)C)c(OCCOCCOCCOCCCCCCCl)c1

- DC50 [11]: 6.6 nM
- Emax [12]: 81%
- IC50 (MOLM-14): 300 nM
SMILES: CN(CCCNC(=O)CNc1cccc2c1C(=O)N(C1CCC(=O)NC1=O)C2=O)C(C)(C)/C=C(\C#N)C(=O)N1CCC[C@@H](n2nc(-c3ccc(Oc4ccccc4)cc3)c3c(N)ncnc32)C1 (stereo partly specified)
- IC50 [13]: 80 nM

- DC50 [14]: 19 nM
- IC50 [15]: 540 nM
SMILES: Cc1ncsc1-c1ccc(CNC(=O)[C@@H]2C[C@@H](O)CN2C(=O)[C@H](C(C)C)N2Cc3ccccc3C2=O)c(OCCOCCOCCOCCCCCCCl)c1
- Emax (HEK293): 90%

- DC50 [16]: 39000 nM
- IC50 (RPMI-8226 [17]): 4200 nM
SMILES: Cc1ncsc1-c1ccc([C@H](C)NC(=O)[C@@H]2C[C@@H](O)CN2C(=O)[C@@H](NC(=O)CCCCc2cn(-c3ccc(C(=O)Nc4cccc(/C=C(\C#N)C(=O)Nc5ccccc5C(=O)O)c4)cc3)nn2)C(C)(C)C)cc1
- Emax (RPMI-8226 [18]): 80%
